According to patent US11766430B2, “Methods of using a phenoxypropylamine compound to treat pain” (Minerva Neurosciences, Inc., priority 2018, dated 2023):
Where “and” joins values, the source holds several entries; their conditions need not be identical. Equal entries are not always repeated.

System: carrageenan-induced mechanical hyperalgesia in rats
Test: Carrageenan-induced mechanical hyperalgesia, paw pressure test, MIN-117 1-10 mg/kg (Example 4)
Type: in vivo, male Sprague-Dawley rats
Details: Carrageenan 2%; for Nociceptive threshold, injured paw (mean ± s.e.m.) / % activity, injured paw: 3 mg/kg; for paw withdrawal threshold, control paw, Mean: n = 10
Method: In this model, inflammation is induced by intraplantar injection of carrageenan (2%) into the right hindpaw of the rat. Three hours later, reaction thresholds are measured using the paw pressure test. Pressure is gradually applied to both hind paws (inflamed and control) of the rat, and reaction thresholds are determined as the pressure (g) required to elicit paw withdrawal or vocalization. Morphine (3 mg/kg, s.c.), used as positive control.
The experiments in this study used fifty (50) male Sprague-Dawley rats (SPF status, Janvier, France), each weighing 183-244 g during the experimental phase. The rats were housed in a temperature (20-24° C.) and relative humidity (45%-65%) controlled room and acclimated to an artificial day/night cycle of 12 hours light (6.30 a.m. to 6.30 p.m.)/12 hours darkness. Rats had free access to sterilized tap water and were fed ad libitum with pelleted complete diet (reference A04, S.A.F.E.). Animals were housed 4 per cage (cages Type E) and were acclimated for a period of at least 5 days before any testing. Each rat was identified by tail markings. Based on the SPF status of the animal facilities, there is no reason to expect that contaminants were present in the food, water or bedding, at levels capable of interfering with the results of the tests.
Static mechanical hyperalgesia was assessed using the Paw Pressure test or Randall & Selitto test (Randall, L. O. and Selitto, J. J., A method for measurement of analgesic activity on inflamed tissue, Arch Int Pharmacodyn, 1957(111): 409-419). This test requires the application of an increasing pressure on the hind paws between a flat surface and a blunt pointer. This test is usually used with animals with one hind paw inflamed by an injection or injured by ligation, and one normal hind paw, to evaluate drugs for analgesic action. The apparatus exerts a steadily increasing force and reaction threshold is determined as the pressure (g) required to elicit paw withdrawal and/or vocalization. In the experiment, animals were gently handled by the experimenter and static mechanical hyperalgesia was assessed. Each reaction threshold measurement was done for both hind paws.
Five (5) experimental groups of 10 rats each were used. Each group was first injected with 100 μL of a 2% carrageenan suspension was injected into the plantar aspect of the right hindpaw. Three hours after carrageenan injection, nociceptive reaction thresholds (vocalization or paw withdrawal) were measured in order to select animals meeting the inclusion criteria: 20 g<paw withdrawal threshold<240 g (baseline). The 5 groups were then administered the following: • Group 1: vehicle (0.5% HPMC), i.p., solution (negative control); • Group 2: MIN-117 (1 mg/kg, i.p.) in 0.5% HPMC, suspension; • Group 3: MIN-117 (3 mg/kg, i.p.) in 0.5% HPMC, suspension; • Group 4: MIN-117 (10 mg/kg, i.p.) in 0.5% HPMC, suspension; and • Group 5: morphine (3 mg/kg, s.c.) in 0.9% NaCl, solution (positive control).
Thirty minutes after morphine injection, the antihyperalgesic effect of morphine was evaluated using the paw pressure test. For vehicle and MIN-117 administration, the antihyperalgesic effect was evaluated after 120 min. using the paw pressure test.
Vehicle and MIN-117 were intraperitoneally administered at 10 mL/kg. Morphine was subcutaneously administered at 5 mL/kg. Dosing and testing were performed in a random order by a blinded experimenter except for the morphine-treated group. Doses were expressed in terms of free active substance.
Results were expressed as: • The paw withdrawal threshold (mean±s.e.m.) in grams of contact pressure for each group, calculated from individual paw withdrawal thresholds • The percentage of variation of the paw withdrawal threshold calculated from the mean value of the vehicle-treated group • The percentage of activity of activity of the compound on carrageenan-induced mechanical hyperalgesia, calculated as follows: […]

[1] = 3 mg/kg s.c., T0 (before dosing)
[2] = 3 mg/kg s.c., T0 + 30 min, listed as morphine
[3] = Morphine 3 mg/kg s.c. group, Baseline (before dosing)
[4] = Morphine 3 mg/kg s.c., 30 min after treatment

In the case of `CN1CC[C@]23c4c5ccc(O)c4O[C@H]2[C@@H](O)C=C[C@H]3[C@H]1C5` [Morphine, reference compound], the “Effect on nociceptive threshold vs baseline pre-treatment (in words)” value (3 mg/kg s.c., 30 min. after the injection) is reported as “marked and significant increase”, the “Nociceptive threshold, control paw (mean ± s.e.m.)” value (3 mg/kg s.c., T0 (3 h after carrageenan, before dosing)) is reported as 376 ± 14.5 g and the “% variation vs control paw, injured paw” value [1] is reported as −47%. For the same compound, the “% variation vs vehicle-treated group, injured paw” value [1] was 0%, the “Nociceptive threshold, injured paw (mean ± s.e.m.)” value (“Nociceptive threshold, injured paw” below) [1] was 200 ± 6.7 g and the “Nociceptive threshold, injured paw” value (3 mg/kg s.c., T0 (before dosing), listed as morphine) was 200 ± 6.7 g. The “% variation vs control paw, injured paw” value (3 mg/kg s.c., T0 + 30 min) was −17%, the “% variation vs pre-drug threshold, injured paw” value (3 mg/kg s.c., T0 + 30 min) was 162% and the “% activity, injured paw” value (3 mg/kg s.c., T0 + 30 min) was 190%. For the same compound, the “Nociceptive threshold, injured paw” value (3 mg/kg s.c., T0 + 30 min) was 524 ± 35.6 g, the “% activity, injured paw” value [2] was “+190%” and the “Nociceptive threshold, injured paw” value [2] was 524 ± 35.6 g. For the same compound, the “% variation vs control paw, injured paw” value [3] was −47%, the “% variation vs vehicle treated group, injured paw” value [3] was 0% and the “paw withdrawal threshold, control paw, Mean” value (Morphine 3 mg/kg s.c. group, Baseline (before dosing, 3 h after carrageenan)) was 376 g. For the same compound, the “% activity on carrageenan-induced mechanical hyperalgesia, injured paw” value (Morphine 3 mg/kg s.c., 30 min) was 190%, the “% variation vs control paw, injured paw” value (Morphine 3 mg/kg s.c., 30 min) was −17% and the “% variation vs pre-drug threshold, injured paw” value (Morphine 3 mg/kg s.c., 30 min) was 162%. For the same compound, the “paw withdrawal threshold, control paw, individual rats” value [4] was 680 g (4×) and 640 g (2×) and 600 g and 620 g and 560 g and 520 g, the “paw withdrawal threshold, injured paw, individual rats” value [4] was 680 g and 600 g (2×) and 500 g and 640 g and 320 g and 400 g and 540 g and 440 g and 520 g and the “paw withdrawal threshold, control paw, Mean” value [4] was 630 g.
